In patent US20240262817A1, “QUINAZOLINE DERIVATIVES TARGETING R(CCUG) REPEATS IN MYOTONIC DYSTROPHY TYPE 2” (University of Florida Research Foundation, Incorporated, priority 2021, published 2024):

What was measured:
r(CCUG)12-MBNL1 complex = experiment: TR-FRET assay, disruption of pre-formed r(CCUG)12-MBNL1 complex; assay type: biochemical; details: in vitro, read-out: IC50 for disrupting an r(CCUG)12-MBNL1 complex
Description: Of the 44 hits, 38 contained a similar substituted N2-phenylquinazoline-2,4-diamine core, while the other hits contained benzimidazoles and indazoles (Figure S2). Importantly, these 44 compounds are drug-like as they have similar physicochemical properties to the rest of the library and to known-drugs in Drug Bank (FIG. 2A). On average, the 44 hit compounds have a molecular weight of 327±35 g/mol, a cLogP of 3.2±0.9. TPSA of 76±15 Å, and 2.5±0.9 hydrogen bond donors. The in vitro potencies (IC50s) of the 44 compounds were then measured in the TR-FRET assay, affording seven compounds (1-7) with IC50s <50 μM (highlighted in red in FIGS. 2B & 2C).
In vitro IC50 measurements: IC50 measurements for disruption of r(CCUG)12-MBNL1 complex was completed using a previously reported TR-FRET assay with minor modifications.^23, 24 Briefly, 5′-biotinylated r(CCUG)12 (SEQ ID NO: 15) was folded in 1× Folding Buffer (20 mM HEPES, pH 7.5, 110 mM KCl, and 10 mM NaCl) at 60° C. for 5 min then cooled to room temperature. The buffer was adjusted to 1× Assay Buffer (20 mM HEPES, pH 7.5, 110 mM KCl, 10 mM NaCl, 2 mM MgCl2, 2 mM CaCl2), 5 mM DTT. 0.1% BSA, and 0.5% Tween-20).
Next, MBNL1-His6 was added, and the samples were incubated at room temperature for 15 min. […] The samples were incubated for 30 min at room temperature and added to a white 384-well plate, where TR-FRET was measured on a Molecular Devices SpectraMax M5 plate reader using an excitation wavelength of 345-nm and a 420-nm cutoff. The ratios of fluorescence intensity at 545 and 665 nm were calculated, and ratios in the absence of a compound and in the absence of RNA were used to calculate percent disruption. […]
[formula] • where y is ratio of fluorescence intensities at 545 nm and 665 nm (F545/F665), x is the concentration of a compound, B is F545/F665 value at max FRET effect (solution has RNA and protein but no compound added); A is F545/F665 value at min FRET effect (solution has antibodies but no RNA, protein, or compound); and the IC50 is the concentration of a compound where half of the protein is displaced by a compound.

[1] = tested on: DM2 patient-derived fibroblasts; experiment: Cell viability by CellTiter-Glo; assay type: cell-based; details: for toxicity in DM2 patient-derived fibroblasts: at 5 μM; for toxicity as stated in legend of FIG. 3C: DM2 fibroblasts
Method: (§1) Cell lines and cell culture: Compounds were tested in two cell lines: (i) DM2 patient-derived fibroblasts (generous gift from University of Florida, Center for NeuroGenetics) and (ii) fibroblasts from a healthy donor (wild-type; WT GM07492; Coriell Institute). Cells were maintained at 37° ° C. with 5% CO2. DM2 fibroblasts were cultured in DMEM/high glucose (HyClone) supplemented with 20% FBS (Sigma) and 1% Antibiotic-Antimycotic solution (Corning). Wild-type fibroblasts were cultured in MEM (Corning) supplemented with 10% FBS, 1% Glutagro (Corning), and 1% Antibiotic-Antimycotic solution.
Evaluation of cell viability: Compound toxicity in DM2 fibroblasts was evaluated using a CellTiter-Glo Kit (Promega) as described in the manufacturer's protocol. Briefly, after 48 h treatment in 96-wells plates, 100 μL of the CellTiter-Glo reagent was added to each well. The plate was then incubated at room temperature for 10 min, and luminescence was measured using BioTek FLX-800 luminescence plate reader (n=6 replicates; 1 independent experiment).

[2] = tested on: IR exon 11 alternative splicing in DM2 patient-derived fibroblasts; experiment: Rescue of IR exon 11 splicing via RT-PCR in DM2 fibroblasts; assay type: cell-based
Method: as §1
Evaluation of pre-mRNA splicing via RT-PCR: Pre-mRNA splicing was analyzed as previously described.^10 Briefly, cells were grown in 6-well plates and treated with the desired compound in growth medium at ˜40% confluency. After 48 h, the cells were lysed, and total RNA was harvested using a Zymo Quick RNA Miniprep Kit. Approximately 1 μg of total RNA was reverse transcribed using a qScript cDNA synthesis kit (20 μL of total reaction volume, Quanta BioSciences); 2 μL of the RT reaction was used for PCR using GoTaq DNA polymerase (Promega). RT-PCR products were observed after 35 cycles of 95° C. for 30 s, 58° C. for 30s, 72 °C for 1 min, and a final extension at 72° C. for 5 min. Products were separated on a 2% agarose gel (110 V for 1 h in 13TBE buffer), visualized by staining with ethidium bromide, and imaged using a Typhoon 9410 variable mode imager. Gels were quantified using ImageJ. Percent rescue was calculated by dividing the difference between treated and untreated DM2 samples by the difference between untreated DM2 and WT samples (Equation 2).

[3] = tested on: r(GACAGCCUGCUGUC)2 duplex, RNA containing a single 2×2 CU/UC internal loop; experiment: NMR spectroscopy (WaterLOGSY, 1D) of binding to RNA with one 2×2 CU/UC internal loop
Description: The binding 1-7 an RNA containing a single 2×2 CU/UC was further studied by NMR spectroscopy. […] Aromatic protons of the unbound RNA were assigned via a 2D NOESY spectrum (Figure S7).
NMR samples preparation: A self-complementary RNA construct, r(5′-GACAGCCUGCUGUC-3′), SEQ ID NO:12, was purchased from GE Healthcare Dharmacon, Inc., deprotected according to the manufacturer's recommended protocol, and desalted with PD-10 columns (GE Healthcare, cat: 17-0851-01) also per the manufacturer's protocol. RNA samples were dissolved in NMR Buffer [10 mM KH2PO4/K2HPO4 and 0.05 mM EDTA (pH 6.0)] and folded by heating to 95° C. for 3 min and slowly cooling to room temperature.
NMR spectroscopy: NMR spectra were acquired at 25° C. on Bruker Avance III 600 and 700 MHZ spectrometers equipped with cryoprobes. 1D NMR spectra were acquired on samples containing 100 μM of RNA alone in 100% D20. Compounds 38, 40, 41, and 42 were each titrated into separate samples at 0.5, 1.0, 1.5, and 2.0 compound: RNA molar ratios. WaterLOGSY (water-ligand observed via gradient spectroscopy) spectra^29 were acquired on samples containing 300 μM of each compound alone or in the presence of 15 μM of RNA at a 20:1 compound:RNA ratio in H2O, to which D2O was added to 5% by volume. WaterLOGSY spectra were phased to give negative NOEs for non-binders. […]

## Cc1ccc2nc(Nc3ccc4c(c3)OCCO4)nc(NCCCO)c2c1 [Compound 58, 3-((2-((2,3-dihydrobenzo[b][1,4]dioxin-6-yl)amino)-6-methylquinazolin-4-yl)amino)propan-1-ol]
r(CCUG)12-MBNL1 complex
  IC50: 12.7 ± 0.2 µM

## Cc1ccc2nc(Nc3ccc4nc(NC5CCN(Cc6ccccc6)CC5)sc4c3)nc(NCCCO)c2c1 [Compound 71, 3-((2-((2-((1-benzylpiperidin-4-yl)amino)benzo[d]thiazol-6-yl)amino)-6-methylquinazolin-4-yl)amino)propan-1-ol]
[1]
  toxicity in DM2 patient-derived fibroblasts: significant toxicity

## Cc1ccc2nc(Nc3ccc4nc(N(CCO)CCO)sc4c3)nc(NCCCO)c2c1 [Compound 80, 2,2′-((6-((4-((3-hydroxypropyl)amino)-6-methylquinazolin-2-yl)amino)benzo[d]thiazol-2-yl)azanediyl)bis(ethan-1-ol)]
[1]
  toxicity as stated in legend of FIG. 3C: non-toxic

## Cc1ccc2nc(Nc3ccc4nc(NCCN5CCOCC5)sc4c3)nc(NCCCO)c2c1 [Compound 74, 3-((6-methyl-2-((2-((2-morpholinoethyl)amino)benzo[d]thiazol-6-yl)amino)quinazolin-4-yl)amino)propan-1-ol]
[1]
  toxicity in DM2 patient-derived fibroblasts: significant toxicity

## Cc1ccc2nc(Nc3ccc4nc(NCC(C)(C)O)sc4c3)nc(NCCCO)c2c1 [Compound 78, 3-((2-((2-((2-hydroxy-2-methylpropyl)amino)benzo[d]thiazol-6-yl)amino)-6-methylquinazolin-4-yl)amino)propan-1-ol]
[1]
  toxicity in DM2 patient-derived fibroblasts: no toxicity
[2]; at 5 μM
  improvement of IR splicing: significantly improved IR splicing

## Cc1ccc2nc(Nc3ccc4nc(NCC(C)C)sc4c3)nc(NCCCO)c2c1 [Compound 73, 3-((2-((2-(isobutylamino)benzo[d]thiazol-6-yl)amino)-6-methylquinazolin-4-yl)amino)propan-1-ol]
[1]
  toxicity in DM2 patient-derived fibroblasts: significant toxicity

## Cc1ccc2nc(Nc3ccc4nc(N5CCOCC5)sc4c3)nc(NCCCO)c2c1 [Compound 72, 3-((6-methyl-2-((2-morpholinobenzo[d]thiazol-6-yl)amino)quinazolin-4-yl)amino)propan-1-ol]
[1]
  toxicity in DM2 patient-derived fibroblasts: significant toxicity

## Cc1ccc2nc(Nc3ccc4nc(NCCN(C)C)sc4c3)nc(NCCCO)c2c1 [Compound 79, 3-((2-((2-((2-(dimethylamino)ethyl)amino)benzo[d]thiazol-6-yl)amino)-6-methylquinazolin-4-yl)amino)propan-1-ol]
[1]
  toxicity as stated in legend of FIG. 3C: non-toxic
  toxicity in DM2 patient-derived fibroblasts: no toxicity
[2]; any concentration studied
  rescue of IR splicing: did not significantly rescue splicing

## Cc1ccc2nc(Nc3ccc4nc(N5CCN(C)CC5)sc4c3)nc(NCCCO)c2c1 [Compound 82, 3-((6-methyl-2-((2-(4-methylpiperazin-1-yl)benzo[d]thiazol-6-yl)amino)quinazolin-4-yl)amino)propan-1-ol]
[1]
  toxicity in DM2 patient-derived fibroblasts: significant toxicity

## OCCCNc1nc(Nc2ccc3c(c2)OCCO3)nc2ccccc12 [Compound 7, 3-((2-((2,3-dihydrobenzo[b][1,4]dioxin-6-yl)amino)quinazolin-4-yl)amino)propan-1-ol]
r(CCUG)12-MBNL1 complex
  IC50: 48.2 ± 0.07 µM
[2]; at 1 μM dose, p=0.026
  rescue of IR splicing: 12±5
[2]; at 5 μM
  rescue of IR exon 11 splicing: ~50%
[3]; compound added to RNA with one 2×2 CU/UC internal loop
  shifts of RNA H6 and H8 proton resonances in 1D NMR, indicating binding: Significant shifts in resonances
[3]; positive phase signals in the presence of RNA
  binding to the RNA by waterLOGSY spectra: bound to the RNA
